# Literature values, collected in patent publication US20190027771A1, “ACID GAS REGENERABLE BATTERY” (Commonwealth Scientific and Industrial Research Organisation, priority 2015, published 2019).
# Conditions: reduction of the free metal ion to the metal
row,Compound,Cathode reaction potential E
1,[Ag+] [Ag^+],E = +0.80 V
2,[Cd+2] [Cd^2+],E = −0.403 V
3,[Co+2] [Co^2+],E = −0.277 V
4,[Cu+2] [Cu^2+],E = +0.34 V
5,[Hg+2] [Hg^2+],E = +0.8535 V
6,[Ni+2] [Ni^2+],E = −0.257 V
7,[Pd+2] [Pd^2+],E = +0.915 V
8,[Pt+2] [Pt^2+],E = +1.188 V
9,[Zn+2] [Zn^2+],E = −0.763 V

# Same assay, conditions: reduction of the metal-ammine complex to the metal and NH3
row,Compound,Anode reaction potential E
1,N.N.[Ag+] [[Ag(NH3)2]^+],E = +0.37 V
2,N.N.N.N.[Cd+2] [[Cd(NH3)4]^2+],E = −0.622 V
3,N.N.N.N.[Co+2] [[Co(NH3)4]^2+],E = −0.422 V
4,N.N.N.N.[Cu+2] [[Cu(NH3)4]^2+],E = −0.04 V
5,N.N.N.N.[Hg+2] [[Hg(NH3)4]^2+],E = +0.283 V
6,N.N.N.N.N.N.[Ni+2] [[Ni(NH3)6]^2+],E = −0.49 V
7,N.N.N.N.[Pd+2] [[Pd(NH3)4]^2+],E = 0.0 V
8,N.N.N.N.N.N.[Pt+2] [[Pt(NH3)6]^2+],E = +0.144 V
9,N.N.N.N.[Zn+2] [[Zn(NH3)4]^2+],E = −1.04 V

# Conditions: Table 2
row,pKa,Compound
1,9.6,"NCCCn1ccnc1 [1-(3-aminopropyl)-imidazole, 1-(3-aminopropyl)imidazole]"
2,9.3,"NCCOCCO [2-(2-Aminoethoxy)-ethanol, 2-(2-Aminoethoxy)ethanol]"
3,11.27,CC1CCNCC1 [4-methylpiperidine]
4,10.5,NCCCCCO [5-Amino-1-pentanol]
5,10.81,CCCCCN [Amylamine]
6,9.47,N[C@@H](CCC(=O)O)C(=O)O [Glutamic acid]
7,9.69,C[C@H](N)C(=O)O [L-Alanine]
8,9.1,C[C@@H](O)[C@H](N)C(=O)O [L-Threonine]
9,10.05,CNCC(=O)O [Sarcosine]
11,9.1,"CC(O)CNCC(C)O (stereo not drawn) [bis(2-hydroxypropyl)-amine, bis(2-hydroxypropyl)amine]"
12,10.9,NCCCCCCN [hexamethylenediamine]
13,9.2,NCc1cccc(CN)c1 [m-Xylylenediamine]

row,Compound,pKa
1,"1,3 Diaminopropane",10.4
2,Pyrrolidine,11.35

# Same assay, conditions: Table 3
row,pKa,Compound
1,10.5,NCCCCCO [5-Amino-1-pentanol]
2,10.9,NCCCCCCN [hexamethylenediamine]

row,Compound,pKa
1,"1,3 Diaminopropane",10.4
